{"source": "patent US6753424B1", "about": "“Conjugates of DNA interacting groups with steroid hormones for use as nucleic acid transfection agents” (priority 1998, dated 2004)", "key": {"[1]": {"test": "Stability of C-21 ester versus C-21 urethane derivatives (TLC analysis)", "type": "in vitro ADME", "details": "pH 5, pH 9, proteinase K (pH 7.8, 50 μg/ml), dispase (2.4 U/ml), cellular extracts, DMEM/10% FCS", "description": "b) water buffered to pH 9;\nc) water buffered to pH 5;\ne) proteinase K (pH 7.8; 50 μg/ml);\nAfter 15 hours of incubation each sample is separately extracted with 400 μl Ethyl acetate, evaporated under N2-flow, redissolved in 20 μl Ethyl acetate and analysed by TLC analysis: stationary phase: Alugram SIL G-25 UV254 (Macherey Nagel AG); mobile phase: Ethyl acetate-MeOH-Acetone (3-1-3)."}, "GR-GFP chimera": {"system": "GR-GFP chimera", "test": "Nuclear Transfer Induction assay (NTI), monourethane ligands, HeLa cells", "type": "cell-based", "details": "1 hr", "description": "Conditions: HeLa cells are transiently transfected by CaPO4 with an expression vector encoding a GR-GFP chimera (5 μg in transfection cocktail, 4 cm diameter dishes, DMEM with 3% FCS). After 24 hour expression, ligand is added for 1 hr and cells are fixed with formaldehyde (5 min 4° C.) and inspected by fluorescence microscopy. Fluorescent cells are counted and divided into different classes according to ‘cytoplasmic’ (C) versus ‘nuclear’ (N) localisation of fluorescence.\nFirst column: “Conditions”: Name of compounds added (marked at top: ‘//ligand’), and their concentration (in parentheses) and assay number (01 through 21).\nValues are given as percentage of cells displaying the corresponding localisatidn, within each tested condition the sum is 100%."}, "3Y1 cells": {"system": "3Y1 cells", "test": "Transfection enhancement, CMV-LacZ reporter, CaPO4 transfection of 3Y1 cells", "type": "cell-based, rat", "details": "5 μg reporter, 3Y1", "description": "Conditions: 3Y1 cells are transfected with an expression vector that is constitutively expressing the reporter gene LacZ (CMV-LacZ). Transfection conditions are identical throughout the various samples (total 10-12 μq DNA for 4 cm dishes). In some samples the DNA used for the transfection cocktail is pre-incubated with various conjugates at the given concentrations. The concentrations are calculated to give from 10−8 to 10−6 M after dispersing the CaPO4 precipitate in the recipient dish (5 ml volume). Transfection is performed O/N and after rinsing of the precipitate the cells are further incubated for 24 hours. LacZ levels are determined from cell extracts with a chemiluminescence LacZ enzyme assay (Galactolight plus. Tropix). The relative luminescence from each extract is given in RLU/mg*1000.\nCell culture. Cells are cultivated in DMEM supplemented with serum and antibiotica according to standard conditions (typically 10% FCS and Pen/Strep as antibiotica). At the day of transfection, cells are trypsinized and seeded at around 25-30% confluency. Cells are allowed to adhere to dish for 4-6 hours prior to transfection.\nDNA pre-incubation (example for conditions that give5×10 exp (−6) Molar final concentration of the CL-C4-EtBr conjugate):\n5 microgram of CMV-LacZ DNA (in 10 microliter TE) are mixed with 10 nmoles of hormone derivative (10 microliters stock solution) and incubated for 10 min at room temperature (final volume: 20 ul). The DNA/cortisol-C4-ethidum mix is then supplemented with 7 micrograms sheared calf thymus carrier DNA (in 14 microliters TE) and bidistilled water to give a final volume of 125 microliters.\nTransfection by CaPO4: to each transfection sample (125 microliter volume DNA+water). 125 microliters of Ca ++ mix are added, and the mix is incubated for 5-10 min at room temperature. Each sample is then supplemented with 250 microliter of Pi-mix (with simultaneous mixing by up-down pipetting) and is further incubated 10 minutes at room temperature after which the cocktail is poured on top of the medium (5 ml) of each cell culture dish (4 cm diameter). The optimal time of incubation after Pi-mix addition is pre-determined by prior evaluation (size of the precipitate) of parallel samples. The precipitate is allowed to deposit onto the cells for 15 hours (incubation of 37 degrees, 5% CO2). The cells are then rinsed twice with Tris-buffered Saline, supplemented with fresh medium and further incubated under standard conditions. To analyze LacZ reporter gene function, the cells are either fixed or harvested 24 hours after precipitate removal.\nVariation of parameters: samples in which the C1-C4-EtBr conjugates (or control compounds) are used at different concentrations, are similarly treated, except that the concentration of the stock solution in ethanol is correspondingly varied."}, "[2]": {"system": "CV-1 cells reconstituted with exogenous GR", "test": "Transfection enhancement, CMV-LacZ reporter, CV-1 cells reconstituted with exogenous GR", "type": "cell-based, monkey", "description": "Conditions: CV-1 cells are first infected with an adenovirus system allowing expression of GR in >90% of the cells (S. B. Verca, unpublished). After 24 hours the cells are; transfected with an expression vector that is constitutively expressing the reporter gene LacZ (CMV-LacZ). Transfection conditions and analysis of LacZ reporter are the same as described in Example 7 legend. Transfection is performed O/N and after rinsing of the precipitate the cells are further incubated for 24 hours. LacZ levels are determined from cell extracts with a chemiluminescence LacZ enzyme assay (Galactolight plus, Tropix). The relative luminescence from each extract is given. Each value represents an individual extract. “Induction”: relative reporter gene activity (values divided by value of assay in lane 9, true negative control for liganding), rel/RLU=(RLU:protein)×1000, net=rel/RLU−600 (600=rel/RLU value approximately corresponding to rel/RLU value of mock transfection)."}, "HUH-7 cells": {"system": "HUH-7 cells", "test": "Transfection enhancement, CMV-LacZ reporter, HUH-7 cells", "type": "cell-based, human", "details": "ligand 10-6, HUH-7", "description": "Conditions: HUH-7 cells are human hepatoma cells that contain substantial amounts of glucocorticoid receptor. The cells are transfected with an expression vector that is constitutively expressing the reporter gene LacZ (CMV-LacZ). Transfection conditions and analysis of LacZ reporter are the same as described in Example 7 legend. Transfection is performed O/N and after rinsing of the precipitate the cells are further incubated for 24 hours. LacZ levels are determined from cell extracts with a chemiluminescence LacZ enzyme assay (Galactolight plus, Tropix). The relative luminescence from each extract is given. Each value represents an individual extract. “Induction”: relative reporter gene activity (values divided by value of assay in lane 9, true negative control for DNA liganding). rel/RLU=(RLU:protein)×1000; net=rel/RLU−600 (600=rel/RLU value approximately corresponding to rel/RLU value of mock transfection)."}}, "data": [{"compound": "Cc1oc2c(C)c3oc(=O)cc(C)c3cc2c1CNC(=O)CCCCCCCCCCNC(=O)OCC(=O)[C@@]1(O)CCC2C3CCC4=CC(=O)CCC4(C)C3C(O)CC21C", "note": "(some centres unmarked) [CL-C12-Pso]", "values": [{"measurement": "stability of urethane bond between steroid moiety, spacer and DNA binder", "setting": "[1]", "value": "stable"}, {"measurement": "C < N, percentage of cells", "setting": "GR-GFP chimera; ligand 1.10-6M", "value": 53, "unit": "%"}, {"measurement": "C << N, percentage of cells", "setting": "GR-GFP chimera; ligand 1.10-6M", "value": 22, "unit": "%"}, {"measurement": "C = N, percentage of cells", "setting": "GR-GFP chimera; ligand 1.10-6M", "value": 25, "unit": "%"}, {"measurement": "C > N, percentage of cells", "setting": "GR-GFP chimera; ligand 1.10-6M", "value": 0, "unit": "%"}, {"measurement": "C >> N, percentage of cells", "setting": "GR-GFP chimera; ligand 1.10-6M", "value": 0, "unit": "%"}, {"measurement": "C < N, percentage of cells", "setting": "GR-GFP chimera; ligand 1.10-7M", "value": 3, "unit": "%"}, {"measurement": "C << N, percentage of cells", "setting": "GR-GFP chimera; ligand 1.10-7M", "value": 0, "unit": "%"}, {"measurement": "C = N, percentage of cells", "setting": "GR-GFP chimera; ligand 1.10-7M", "value": 52, "unit": "%"}, {"measurement": "C > N, percentage of cells", "setting": "GR-GFP chimera; ligand 1.10-7M", "value": 40, "unit": "%"}, {"measurement": "C >> N, percentage of cells", "setting": "GR-GFP chimera; ligand 1.10-7M", "value": 5, "unit": "%"}]}, {"compound": "Cc1oc2c(C)c3oc(=O)cc(C)c3cc2c1CNC(=O)CCNC(=O)OCC(=O)[C@@]1(O)[C@H](C)CC2C3CCC4=CC(=O)C=CC4(C)[C@@]3(F)C(O)CC21C", "note": "(some centres unmarked) [DEX-C4-Pso]", "values": [{"measurement": "stability of urethane bond between steroid moiety, spacer and DNA binder", "setting": "[1]", "value": "stable"}, {"measurement": "C < N, percentage of cells", "setting": "GR-GFP chimera; ligand 1.10-6M", "value": 15, "unit": "%"}, {"measurement": "C << N, percentage of cells", "setting": "GR-GFP chimera; ligand 1.10-6M", "value": 5, "unit": "%"}, {"measurement": "C = N, percentage of cells", "setting": "GR-GFP chimera; ligand 1.10-6M", "value": 60, "unit": "%"}, {"measurement": "C > N, percentage of cells", "setting": "GR-GFP chimera; ligand 1.10-6M", "value": 20, "unit": "%"}, {"measurement": "C >> N, percentage of cells", "setting": "GR-GFP chimera; ligand 1.10-6M", "value": 0, "unit": "%"}, {"measurement": "C < N, percentage of cells", "setting": "GR-GFP chimera; ligand 1.10-7M", "value": 5, "unit": "%"}, {"measurement": "C << N, percentage of cells", "setting": "GR-GFP chimera; ligand 1.10-7M", "value": 0, "unit": "%"}, {"measurement": "C = N, percentage of cells", "setting": "GR-GFP chimera; ligand 1.10-7M", "value": 40, "unit": "%"}, {"measurement": "C > N, percentage of cells", "setting": "GR-GFP chimera; ligand 1.10-7M", "value": 35, "unit": "%"}, {"measurement": "C >> N, percentage of cells", "setting": "GR-GFP chimera; ligand 1.10-7M", "value": 20, "unit": "%"}]}, {"compound": "Cc1oc2c(C)c3oc(=O)cc(C)c3cc2c1CNC(=O)OCCOCCNC(=O)OCCOCCNC(=O)OCC(=O)[C@@]1(O)[C@H](C)CC2C3CCC4=CC(=O)C=CC4(C)[C@@]3(F)C(O)CC21C", "note": "(some centres unmarked) [DEX-O-O-PSO]", "values": [{"measurement": "stability of urethane bond between steroid moiety, spacer and DNA binder", "setting": "[1]", "value": "stable"}]}, {"compound": "CC[n+]1c(-c2ccccc2)c2cc(N)ccc2c2ccc(N)cc21", "note": "[EtBr, Ethidium Bromide, reference compound]", "values": [{"measurement": "light units (relative luminescence, LacZ)", "setting": "3Y1 cells; ligand 10^-6M", "value": 2250, "unit": "RLU/mg*1000"}, {"measurement": "light units (relative luminescence, LacZ)", "setting": "3Y1 cells; ligand 10^-7M", "value": 2500, "unit": "RLU/mg*1000"}, {"measurement": "light units (relative luminescence, LacZ)", "setting": "3Y1 cells; ligand 10^-8M", "value": 2750, "unit": "RLU/mg*1000"}, {"measurement": "RLU", "setting": "[2]; ligand 10-6, CV-1 with GR", "value": 851}, {"measurement": "induction (relative reporter gene activity, divided by value of lane 9)", "setting": "[2]; ligand 10-6, CV-1 with GR", "value": 0.77}, {"measurement": "net = rel/RLU−600", "setting": "[2]; ligand 10-6, CV-1 with GR", "value": 626.2}, {"measurement": "rel/RLU = (RLU:protein)×1000", "setting": "[2]; ligand 10-6, CV-1 with GR", "value": 1226.2}, {"measurement": "RLU", "setting": "[2]; ligand 10-7, CV-1 with GR", "value": 1632}, {"measurement": "induction (relative reporter gene activity, divided by value of lane 9)", "setting": "[2]; ligand 10-7, CV-1 with GR", "value": 2.01}, {"measurement": "net = rel/RLU−600", "setting": "[2]; ligand 10-7, CV-1 with GR", "value": 1626}, {"measurement": "rel/RLU = (RLU:protein)×1000", "setting": "[2]; ligand 10-7, CV-1 with GR", "value": 2226.5}, {"measurement": "RLU", "setting": "HUH-7 cells", "value": 168920}, {"measurement": "induction (relative reporter gene activity, divided by value of lane 9)", "setting": "HUH-7 cells", "value": 1.49}, {"measurement": "net", "setting": "HUH-7 cells", "value": 103}, {"measurement": "rel/RLU", "setting": "HUH-7 cells", "value": 233.3}]}]}
